Laboratory results: publication PMC4727946 (The Journal of General Physiology, 2016)

Columns and labels:
Format in all cases: cell-based
Pannexin1 (Panx1) [1] = molecular target: T1, Pannexin1 (Panx1) (Homo sapiens, UniProt Q96RD7); test: whole-cell patch clamp in transfected HEK293 cells
Pannexin1 (Panx1) [2] = molecular target: T1, Pannexin1 (Panx1); test: whole-cell patch clamp of Panx1-transfected HEK293 cells, dose response
Pannexin1 (Panx1) [3] = molecular target: T1, Pannexin1 (Panx1); test: whole-cell patch clamp in transfected HEK293 cells; remark: listed apart in the source

T1 sequence (Q96RD7 whole entry): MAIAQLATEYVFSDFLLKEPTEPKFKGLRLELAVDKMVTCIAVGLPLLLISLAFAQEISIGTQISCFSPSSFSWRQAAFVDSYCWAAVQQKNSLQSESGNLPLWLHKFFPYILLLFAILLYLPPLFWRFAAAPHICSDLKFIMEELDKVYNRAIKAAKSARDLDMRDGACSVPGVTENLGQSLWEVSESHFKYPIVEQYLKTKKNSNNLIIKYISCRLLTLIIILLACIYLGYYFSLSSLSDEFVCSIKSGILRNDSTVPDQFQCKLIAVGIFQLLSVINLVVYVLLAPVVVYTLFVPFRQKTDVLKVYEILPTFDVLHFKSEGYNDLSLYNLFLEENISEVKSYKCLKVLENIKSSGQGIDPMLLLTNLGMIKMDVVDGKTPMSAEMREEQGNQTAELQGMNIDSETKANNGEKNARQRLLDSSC

With `COc1ccc(Cl)cc1C(=O)NCCc1ccc(S(=O)(=O)NC(=O)NC2CCCCC2)cc1` [glybenclamide] the “whole-cell patch clamp in transfected HEK293 cells (150 μM)” value (Pannexin1 (Panx1) [1]) was “W74 is essential not only for CBX, but also for the other four Panx1 inhibitors to function”.
For `CC1(C)[C@@H](OC(=O)CCC(=O)O)CC[C@]2(C)[C@H]3C(=O)C=C4[C@@H]5C[C@@](C)(C(=O)O)CC[C@]5(C)CC[C@@]4(C)[C@]3(C)CC[C@@H]12` [carbenoxolone], the IC50 (Pannexin1 (Panx1) [2]) was about 2000 nM.
In the case of `CCCN(CCC)S(=O)(=O)c1ccc(C(=O)O)cc1` [probenecid], the “whole-cell patch clamp in transfected HEK293 cells (3 mM and 10 mM)” value (Pannexin1 (Panx1) [3]) is reported as “suggesting that binding of probenecid trapped Panx1 in a nonresting closed conformation”.
